According to patent US20240025903A1, “Bicyclic Compounds and Uses Thereof for the Treatment of Diseases” (Athira Pharma, Inc., priority 2020, published 2024):

Columns and labels:
[1] = Parallel artificial membrane permeability assay (PAMPA); format: in vitro ADME; details: PBS, room temperature
Procedure: Bioavailable drugs must permeate the cellular membranes of the lining of the digestive tract. To estimate the penetrability of exemplary compounds, the in vitro parallel artificial membrane permeability assay (PAMPA) was utilized.
Test compounds must have a standard curve in the final read plate to determine partitioned concentration of each drug. A 6-point standard curve was prepared for each compound from 0 to 200 μM in phosphate-buffered saline (PBS).
Test compound solution (300 μL in PBS) was added to the donor (bottom) well of the PAMPA plate in 5 replicates and PBS vehicle (200 μL) was added to the acceptor (top) wells of appropriate wells to match the loading of the donor plate. The bottom and top of the PAMPA plates were then sandwiched together. The PAMPA plates were then incubated at room temperature for 5 hours. After incubation, 150 μL of donor solution was added to a UV compatible plate containing the corresponding standard curve. 150 μL of acceptor well solution was added adjacent to the corresponding standard curve and donor well samples for that compound. The plate was then read using a UV plate reader.
Permeability and membrane retention were then calculated based on the following formulas:
Permeability (cm/s): (Pe)(cm/s)={−ln [1−CA(t)/Ceq]}/[A*(1/VD+1/VA)*t] (equation 1) • where: • A=filter area (0.3 cm^2); • VD=donor well volume (0.3 mL); • VA=acceptor well volume (0.2 mL); • t=incubation time (seconds); • CA(t)=compound concentration in acceptor well at time t; • CD(t)=compound concentration in donor well at time t; and • Ceq=[CD(t)*VD+CA(t)*VA]/(VD+VA).
Membrane Retention (R)=1−[CD(t)*VD+CA(t)*VA]/(C0*VD) (equation 2) • where: • CD(t), VD, CA(t), and VA are as defined for equation 1, and • C0=initial concentration in donor well (200 uM).

HGF/MET system = biological target: T1, HGF/MET system (Homo sapiens, UniProt P08581+P14210); test: Phospho-MET ELISA; format: cell-based; design: key: − indicates that the compound failed to significantly augment MET phosphorylation; + indicates maximum potency at or above 100 nM; ++ indicates maximum potency at or above 10 nM; +++ indicates maximum potency at or above 1 nM; ++++ indicates maximum potency at or above 0.1 nM; details: HEK293 cells, 1 ng/mL recombinant HGF, 15 minutes, pMET ELISA
T1 construct: HEK293 cells were prepared by passage into 6-well multi-plates; endogenous in cells; host or cells: HEK293
T1 sequence (P08581 308-1390 limits assumed): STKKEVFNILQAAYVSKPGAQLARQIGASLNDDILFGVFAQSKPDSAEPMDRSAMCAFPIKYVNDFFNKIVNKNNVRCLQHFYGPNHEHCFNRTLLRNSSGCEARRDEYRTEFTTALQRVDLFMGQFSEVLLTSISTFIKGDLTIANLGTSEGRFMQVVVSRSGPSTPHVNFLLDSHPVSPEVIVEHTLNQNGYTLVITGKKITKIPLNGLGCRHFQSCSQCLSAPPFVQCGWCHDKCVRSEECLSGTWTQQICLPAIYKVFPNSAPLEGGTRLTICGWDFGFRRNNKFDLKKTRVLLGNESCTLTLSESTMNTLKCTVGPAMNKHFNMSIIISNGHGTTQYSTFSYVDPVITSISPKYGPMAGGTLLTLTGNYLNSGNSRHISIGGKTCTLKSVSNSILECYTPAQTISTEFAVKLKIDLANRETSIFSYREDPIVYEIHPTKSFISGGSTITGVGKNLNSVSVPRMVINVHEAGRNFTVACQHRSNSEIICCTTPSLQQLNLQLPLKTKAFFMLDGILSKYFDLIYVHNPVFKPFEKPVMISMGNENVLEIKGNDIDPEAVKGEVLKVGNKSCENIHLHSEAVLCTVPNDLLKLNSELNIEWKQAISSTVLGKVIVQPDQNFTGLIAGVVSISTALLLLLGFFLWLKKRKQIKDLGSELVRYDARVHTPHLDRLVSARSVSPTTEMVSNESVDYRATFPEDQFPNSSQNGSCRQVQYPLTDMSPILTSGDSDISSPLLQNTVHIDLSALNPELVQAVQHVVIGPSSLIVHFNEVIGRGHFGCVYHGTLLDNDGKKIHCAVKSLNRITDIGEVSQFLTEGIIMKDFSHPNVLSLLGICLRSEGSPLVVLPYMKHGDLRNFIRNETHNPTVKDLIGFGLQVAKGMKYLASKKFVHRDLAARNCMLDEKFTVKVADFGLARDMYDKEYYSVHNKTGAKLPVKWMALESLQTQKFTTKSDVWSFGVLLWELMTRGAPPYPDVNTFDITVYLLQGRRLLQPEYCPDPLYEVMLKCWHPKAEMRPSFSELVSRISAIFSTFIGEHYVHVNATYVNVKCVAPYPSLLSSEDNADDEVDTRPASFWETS
T1 sequence (P14210 32-494 limits assumed): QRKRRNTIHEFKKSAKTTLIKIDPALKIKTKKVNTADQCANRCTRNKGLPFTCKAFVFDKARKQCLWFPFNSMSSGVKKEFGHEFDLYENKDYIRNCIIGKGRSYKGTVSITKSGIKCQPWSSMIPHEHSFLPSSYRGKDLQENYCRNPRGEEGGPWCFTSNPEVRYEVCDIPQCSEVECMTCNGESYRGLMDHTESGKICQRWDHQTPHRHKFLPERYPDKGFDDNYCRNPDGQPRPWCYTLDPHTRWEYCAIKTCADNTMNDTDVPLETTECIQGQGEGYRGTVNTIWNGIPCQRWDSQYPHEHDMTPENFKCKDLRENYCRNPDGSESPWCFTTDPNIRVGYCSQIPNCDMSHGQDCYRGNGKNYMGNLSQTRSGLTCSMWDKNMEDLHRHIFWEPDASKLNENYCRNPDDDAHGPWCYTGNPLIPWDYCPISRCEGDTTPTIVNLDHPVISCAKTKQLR
Procedure: Compounds were screened for potency towards the HGF/MET system using phospho-MET (pMET) ELISA kits (Cell Signaling). pMET levels were detected in samples having low (1 ng/mL) and high (10 ng/mL) concentrations of HGF.
HEK293 cells were prepared by passage into 6-well multi-plates and grown at 37° C. at 5% CO2 in DMEM+10% FBS until approximately 90% confluent. Cells were then starved for at least 8 hours in serum-free growth media.
Exemplary compounds were prepared in DMEM+0.1% FBS, diluted and added to treatment media with 1 ng/mL recombinant HGF protein (R&D Systems). Cells were incubated in triplicate at 37° C. and 5% CO2 for 15 minutes. Samples were then treated with 180 μL ice-cold RIPA (radioimmunoprecipitation assay) buffer and cells were lysed on ice for 15 minutes. Lysates were cleared by centrifugation at 16,000-g for 15 minutes and the supernatant was retained. Samples were normalized using a BCA assay of lysates to determine protein concentrations across the samples.
Between 50 and 100 μg total protein lysate was loaded into ELISA wells in pMET Sandwich ELISA kit (Cell Signaling Catalog #7227C), ensuring equal protein load in each well. The ELISA was processed according to manufacturer's instructions. After color developed, absorbance was read on an optical plate reader at 450 nm.
Potency measurements were determined using peak efficacy by scaling test compound dose treatments along a scale of 1-10 between 1 ng/mL and 10 ng/mL HGF doses according to the following formula: […]
where y is the normalized data-point, x is the raw data point, A is the mean HGF at 1 ng/mL, and B is the mean HGF at 10 ng/mL.

MDCK cells = test: Cell scattering behavior assay; format: cell-based; design: key: − indicates that the compound failed to significantly promote cell scattering behavior; + indicates maximum potency at or above 100 nM; ++ indicates maximum potency at or above 10 nM; +++ indicates maximum potency at or above 1 nM; ++++ indicates maximum potency at or above 0.1 nM; details: 5 ng/mL HGF, 24 hours, normalized particle count vs HGF alone
Procedure: MDCK cells were grown under normal conditions and observed to spontaneously form tight colonies as they proliferate. MDCK cells respond to HGF treatment by moving away from each other (scattering), which is quantified to assess the amount of HGF/MET activation in the cell population. In this experiment, MDCK cells were plated in a 96-well format, treated with HGF and exemplary compounds, fluorescently stained, imaged in large fields, and scattering behavior was quantified. Quantification was determined by analyzing the number of continuous groups of cells compared to the total stained area imaged (normalized particle counts).
MDCK cells were plated at low density in black-walled imaging plates and allowed to attach overnight at 37° C. and 5% CO2 in DMEM+10% FBS. Cells were then starved to 2 hours in DMEM without FBS (“starve media”). Samples containing exemplary compounds were prepared in DMEM without FBS and included 5 ng/mL HGF protein (“treatment media”). A control curve was also prepared for each plate using HGF concentrations of 0, 5, 10, and 20 ng/mL. Starve media was replaced with treatment media and cells were incubated for 24 hours at 37° C. and 5% CO2.
After incubation, cells were fixed by replacing treatment media with cold ethanol and incubating for 20 minutes at 4° C. Cells were then rehydrated by washing with PBS and then with stain solution (fluorescent wheat germ agglutinin; WGA488 at 20 μg/mL in PBS). Cells were incubated with stain solution 30 minutes at room temperature after which stain solution was replaced with fresh PBS.
Fields of cells were imaged using an iCyte high content imager in the green wavelength. Images were converted to binary and analyzed for particle size and particle count. For the purpose of analysis, an individual cell touching no other cells or separated colonies of cells were identified as particles, and particle counts were normalized by the total signal area to account for differences in cell number. […] Compound potency was assessed by statistical increase in normalized particle count compared to HGF treatment alone.

[2] = Turbidimetric solubility assay; format: physicochemical; details: aqueous buffer, kinetic from dmso stock, PBS, 37° C., absorbance 620 nm
Procedure: Aqueous solubility is a critical drug property that helps to predict bioavailability. Generally, compounds with aqueous solubility <100 μg/ml are poor drugs.
To assess a compound's solubility by turbidity, test compounds were first dissolved in organic solvent (DMSO) at a concentration of 10 mM. This compound solution was then diluted in aqueous solvent (PBS) in a dilution series from […] in a 96-well assay plate. Solutions were incubated at 37° C. for 2 hours.
In wells with test compounds over their solubility limit, the compound will precipitate, effectively blocking the passage of light and thus increasing the absorbance signal of UV light at a wavelength of 620 nm. Compounds were considered insoluble at a tested concentration if turbidity raises the absorbance more than 10% above control reads.

HepG2 cells = test: Cytotoxicity assay (LDH release); format: cell-based; details: 48 hours, 0.1 to 100 μM
Procedure: This experiment was designed to obtain a preliminary assessment of cytotoxicity.
HepG2 cells were plated in 96-well cell culture plates and allowed to attach overnight at 37° C., 5% CO2 in EMEM+10% FBS. Treatments were made in complete media (EMEM+10% FBS) and included a dilution series of test compounds from 0.1 to 100 μM. Known cytotoxin cerivastatin was used as a positive assay control and prepared at a final concentration of 0.5 μM.
Growth media was replaced with treatment media (EMEM+10% FBS containing test compound dissolved in DMSO) and cells were incubated with test compounds for 48 hours. At the end of the incubation period, supernatant media from each well was transferred to a new plate and LDH assay working solution was added. LDH assay solution undergoes a colorimetric reaction in proportion to the amount of lactate dehydrogenase (an intracellular protein that was only found in the media in the presence of lysed cells) in the media. Color reaction was quantified by measurement of absorbance at a wavelength of 490 nm.
The signal range of the assay was determined by no manipulation in a negative control treatment and full lysis of all cells in a lysis control sample. Compounds that increase the level of cytotoxicity more than 20% above negative control samples were considered cytotoxic in this assay.

SMILES | Permeability ([1]; 5 hours) | Potency (augmentation of MET phosphorylation) (HGF/MET system) | Potency (cell scattering) (MDCK cells) | solubility at 2 h [2] [µM] | Papp at 5 h, 200 µM [1] [×10⁻⁶ cm/s] | Cytotoxicity (HepG2 cells)
CCC(C)CN1CC2N(C(=O)c3ccc(O)cc3)CCC(=O)N2[C@@H](C)C1=O (some centres unmarked) [Compound 3a] | +++ (+++ indicates permeability below 2 × 10^−6 cm/s) | − | − | > 300 |  | 
CCC(C)CN1CC2N(C(=O)c3ccc(O)nc3)CCC(=O)N2[C@@H](C)C1=O (some centres unmarked) [Compound 4a] |  | + (+ indicates maximum potency at or above 100 nM) | + (+ indicates maximum potency at or above 100 nM) | > 300 | > 10 | ++++ (++++ indicates non-toxic at 100 μM)
CCC(C)N1CC2N(Cc3ccc(O)cc3)CCC(=O)N2CC1=O (centres unmarked) [Compound 9] |  | − | − | > 300 | > 2 | ++++ (++++ indicates non-toxic at 100 μM)
C=CCCN1CC2N(Cc3ccc(OC(F)F)cc3)CCC(=O)N2C(C)C1=O (centres unmarked) [Compound 39] |  | − | − | > 300 |  | 
CCCCN1CC2N(Cc3ccc(OC(F)F)cc3)CCC(=O)N2C(C)C1=O (centres unmarked) [Compound 41] |  | − | − | > 300 |  | 
CCC(C)CN1CC2N(Cc3ccc(F)cc3)CCC(=O)N2C(C)C1=O (centres unmarked) [Compound 42] |  | ++++ (++++ indicates maximum potency at or above 0.1 nM) | +++ (+++ indicates maximum potency at or above 1 nM) | > 300 | > 2 | ++++ (++++ indicates non-toxic at 100 μM)
CCC(C)CN1CC2N(Cc3ccc(C(F)(F)F)c(Cl)c3)CCC(=O)N2C(C)C1=O (centres unmarked) [Compound 43] |  | − | − | > 100 |  | 
CCC(C)CN1CC2N(Cc3c[nH]c4ccccc34)CCC(=O)N2C(C)C1=O (centres unmarked) [Compound 44] |  | − | − | > 100 |  | 
CC1C(=O)N(CCC2CCCC2)CC2N(Cc3ccc(F)cc3)CCC(=O)N12 (centres unmarked) [Compound 46, 8-(2-cyclopentylethyl)-1-(4-fluorobenzyl)-6-methylhexahydro-4H-pyrazino[1,2-c]pyrimidine-4,7(6H)-dione] |  | − | − | > 300 |  | 
CCC(C)CN1CC2N(Cc3ccc(OC(F)F)cc3)CCC(=O)N2C(CC(=O)O)C1=O (centres unmarked) [Compound 49, 2-(1-(4-(difluoromethoxy)benzyl)-8-(2-methylbutyl)-4,7-dioxooctahydro-2H-pyrazino[1,2-a]pyrimidin-6-yl)acetic acid] |  | ++++ (++++ indicates maximum potency at or above 0.1 nM) | ++++ (++++ indicates maximum potency at or above 0.1 nM) | > 300 | > 2 | ++++ (++++ indicates non-toxic at 100 μM)
CCC(C)CN1CC2N(Cc3ccc(OC(F)F)cc3)CCC(=O)N2C(CC(N)=O)C1=O (centres unmarked) [Compound 50, 2-(1-(4-(difluoromethoxy)benzyl)-8-(2-methylbutyl)-4,7-dioxooctahydro-2H-pyrazino[1,2-a]pyrimidin-6-yl)acetamide] |  | − | − | > 300 |  | 
CC1C(=O)N(CCC2CCC2)CC2N(Cc3ccc(C(F)(F)F)c(Cl)c3)CCC(=O)N12 (centres unmarked) [Compound 51] |  | +++ (+++ indicates maximum potency at or above 1 nM) | +++ (+++ indicates maximum potency at or above 1 nM) | > 100 | < 2 | +++ (+++ indicates non-toxic at 10 μM)
